The compounds below were run against T1, EZH2 (Homo sapiens, UniProt Q15910) (assay: EZH2 methyltransferase SPA assay (3H-SAM, Hela nucleosomes)). Conditions: not given.
T1 construct: GRITS37108
Assay type: biochemical

T1 sequence (Q15910 whole entry): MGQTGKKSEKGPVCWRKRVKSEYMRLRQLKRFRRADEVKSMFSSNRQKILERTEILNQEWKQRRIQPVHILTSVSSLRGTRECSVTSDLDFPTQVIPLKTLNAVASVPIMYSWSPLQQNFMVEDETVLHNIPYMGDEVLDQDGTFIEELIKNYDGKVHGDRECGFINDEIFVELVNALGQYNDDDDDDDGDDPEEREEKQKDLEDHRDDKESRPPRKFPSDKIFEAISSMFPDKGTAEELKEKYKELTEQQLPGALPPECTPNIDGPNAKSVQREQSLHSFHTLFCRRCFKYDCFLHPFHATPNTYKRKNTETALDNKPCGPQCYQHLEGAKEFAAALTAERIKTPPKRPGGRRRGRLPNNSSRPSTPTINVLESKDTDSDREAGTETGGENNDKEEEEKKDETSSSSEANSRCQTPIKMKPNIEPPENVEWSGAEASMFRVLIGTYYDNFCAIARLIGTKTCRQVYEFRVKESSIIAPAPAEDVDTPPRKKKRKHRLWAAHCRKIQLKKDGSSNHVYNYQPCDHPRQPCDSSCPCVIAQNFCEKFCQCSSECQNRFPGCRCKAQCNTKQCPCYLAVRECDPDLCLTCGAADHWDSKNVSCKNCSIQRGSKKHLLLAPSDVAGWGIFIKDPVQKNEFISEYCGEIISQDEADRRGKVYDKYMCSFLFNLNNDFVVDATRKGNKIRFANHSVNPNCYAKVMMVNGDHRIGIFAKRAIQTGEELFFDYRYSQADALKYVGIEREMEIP
T1 sequence (O75530 whole entry partner): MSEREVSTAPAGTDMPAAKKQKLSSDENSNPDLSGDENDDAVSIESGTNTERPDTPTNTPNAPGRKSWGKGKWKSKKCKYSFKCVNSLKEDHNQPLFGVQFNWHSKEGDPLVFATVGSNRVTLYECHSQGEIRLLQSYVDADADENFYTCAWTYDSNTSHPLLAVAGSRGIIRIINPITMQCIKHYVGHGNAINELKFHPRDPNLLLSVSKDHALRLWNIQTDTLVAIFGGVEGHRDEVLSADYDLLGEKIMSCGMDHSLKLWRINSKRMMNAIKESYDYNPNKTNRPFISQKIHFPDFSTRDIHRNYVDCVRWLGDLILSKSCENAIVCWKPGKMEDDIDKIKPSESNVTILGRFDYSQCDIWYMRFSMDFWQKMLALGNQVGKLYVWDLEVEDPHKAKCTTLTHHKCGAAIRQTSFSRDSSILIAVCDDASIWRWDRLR
T1 sequence (Q15022 whole entry partner): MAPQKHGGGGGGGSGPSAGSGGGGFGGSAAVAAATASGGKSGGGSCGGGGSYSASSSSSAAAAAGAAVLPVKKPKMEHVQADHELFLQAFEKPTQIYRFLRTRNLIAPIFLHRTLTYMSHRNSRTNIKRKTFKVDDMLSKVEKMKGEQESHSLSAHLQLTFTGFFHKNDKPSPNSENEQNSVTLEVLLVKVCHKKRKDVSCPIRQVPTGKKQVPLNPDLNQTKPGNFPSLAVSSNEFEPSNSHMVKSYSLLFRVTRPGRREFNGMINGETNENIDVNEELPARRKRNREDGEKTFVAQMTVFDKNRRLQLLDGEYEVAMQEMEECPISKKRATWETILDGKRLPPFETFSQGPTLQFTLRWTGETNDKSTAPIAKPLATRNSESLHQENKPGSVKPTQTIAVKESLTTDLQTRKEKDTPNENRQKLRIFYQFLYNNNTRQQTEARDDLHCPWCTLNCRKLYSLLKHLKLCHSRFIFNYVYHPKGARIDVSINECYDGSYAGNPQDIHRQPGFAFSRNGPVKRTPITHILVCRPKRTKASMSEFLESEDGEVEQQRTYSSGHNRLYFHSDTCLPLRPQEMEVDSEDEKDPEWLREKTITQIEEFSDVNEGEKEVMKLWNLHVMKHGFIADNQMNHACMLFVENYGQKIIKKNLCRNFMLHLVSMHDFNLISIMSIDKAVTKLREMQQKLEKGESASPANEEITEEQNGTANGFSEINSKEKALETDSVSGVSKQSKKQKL

Structure (SMILES) | IC50 [nM]
CCCc1cc(C)[nH]c(=O)c1CNC(=O)c1cc(-c2ccncc2)nc2c1cnn2C(C)C [Ex 11, 1-(1-Methylethyl)-N-[(6-methyl-2-oxo-4-propyl-1,2-dihydro-3-pyridinyl)methyl]-6-(4-pyridinyl)-1H-pyrazolo[3,4-b]pyridine-4-carboxamide] | 18

Same assay, conditions: read-out: IC50

Structure (SMILES) | IC50 [nM]
CC(=O)Nc1ccc(-c2cc(C(=O)NCc3c(C)cc(C)[nH]c3=O)c3c(C)nn(C(C)C)c3n2)cc1 [Ex 93, 6-[4-(Acetylamino)phenyl]-N-[(4,6-dimethyl-2-oxo-1,2-dihydro-3-pyridinyl)methyl]-3-methyl-1-(1-methylethyl)-1H-pyrazolo[3,4-b]pyridine-4-carboxamide] | 83
Cc1cc(C)c(CNC(=O)c2cc(C3CC3)nc3c2c(C)nn3C2CCN(C)CC2)c(=O)[nH]1 [Ex 111, 6-Cyclopropyl-N-[(4,6-dimethyl-2-oxo-1,2-dihydro-3-pyridinyl)methyl]-3-methyl-1-(1-methyl-4-piperidinyl)-1H-pyrazolo[3,4-b]pyridine-4-carboxamide] | 367
Cc1cc(C2CCCCC2)c(CNC(=O)c2cc(-c3ccncc3)nc3c2cnn3C(C)C)c(=O)[nH]1 [Ex 15, N-[(4-Cyclohexyl-6-methyl-2-oxo-1,2-dihydro-3-pyridinyl)methyl]-1-(1-methylethyl)-6-(4-pyridinyl)-1H-pyrazolo[3,4-b]pyridine-4-carboxamide] | 179
Cc1cc(C)c(CNC(=O)c2cc(C3CC3)nc3c2c(C)nn3C(C)C2CC2)c(=O)[nH]1 (stereo not drawn) [Ex 109, 6-Cyclopropyl-1-(1-cyclopropylethyl)-N-[(4,6-dimethyl-2-oxo-1,2-dihydro-3-pyridinyl)methyl]-3-methyl-1H-pyrazolo[3,4-b]pyridine-4-carboxamide] | 207
CCCc1cc(C)[nH]c(=O)c1CNC(=O)c1cc(C2CC2)nc2c1cnn2C(C)C [Ex 13, 6-Cyclopropyl-1-(1-methylethyl)-N-[(6-methyl-2-oxo-4-propyl-1,2-dihydro-3-pyridinyl)methyl]-1H-pyrazolo[3,4-b]pyridine-4-carboxamide] | 55
Cc1cc(C)c(CNC(=O)c2cc(C(C)C)nc3c2cnn3C(C)C)c(=O)[nH]1 [Ex 37, N-[(4,6-Dimethyl-2-oxo-1,2-dihydro-3-pyridinyl)methyl]-1,6-bis(1-methylethyl)-1H-pyrazolo[3,4-b]pyridine-4-carboxamide] | 1100
Cc1cc(C)c(CNC(=O)c2cc(-c3cncc(NS(=O)(=O)c4ccccc4)c3)nc3c2cnn3C(C)C)c(=O)[nH]1 [Ex 65, N-[(4,6-Dimethyl-2-oxo-1,2-dihydro-3-pyridinyl)methyl]-1-(1-methylethyl)-6-{5-[(phenylsulfonyl)amino]-3-pyridinyl}-1H-pyrazolo[3,4-b]pyridine-4-carboxamide] | 55
Cc1cc(C)c(CNC(=O)c2cc(C#CC(C)(C)O)nc3c2cnn3C(C)C)c(=O)[nH]1 [Ex 29, N-[(4,6-Dimethyl-2-oxo-1,2-dihydro-3-pyridinyl)methyl]-6-(3-hydroxy-3-methyl-1-butyn-1-yl)-1-(1-methylethyl)-1H-pyrazolo[3,4-b]pyridine-4-carboxamide] | 234
Cc1cc(C)c(CNC(=O)c2cc(NCCO)nc3c2cnn3C(C)C)c(=O)[nH]1 [Ex 57, N-[(4,6-Dimethyl-2-oxo-1,2-dihydro-3-pyridinyl)methyl]-6-[(2-hydroxyethyl)amino]-1-(1-methylethyl)-1H-pyrazolo[3,4-b]pyridine-4-carboxamide] | 784
Cc1cc(C(F)(F)F)c(CNC(=O)c2cc(C3CC3)nc3c2cnn3C(C)C)c(=O)[nH]1 [Ex 23, 6-Cyclopropyl-1-(1-methylethyl)-N-{[6-methyl-2-oxo-4-(trifluoromethyl)-1,2-dihydro-3-pyridinyl]methyl}-1H-pyrazolo[3,4-b]pyridine-4-carboxamide] | 1430
Cc1cc(C)c(CNC(=O)c2cc(-c3cnc4c(c3)CCC(=O)N4)nc3c2cnn3C(C)C)c(=O)[nH]1 [Ex 96, N-[(4,6-Dimethyl-2-oxo-1,2-dihydro-3-pyridinyl)methyl]-1-(1-methylethyl)-6-(7-oxo-1,5,6,7-tetrahydro-1,8-naphthyridin-3-yl)-1H-pyrazolo[3,4-b]pyridine-4-carboxamide] | 57
Cc1cc(C)c(CNC(=O)c2cc(-c3ccc4nonc4c3)nc3c2c(C)nn3C(C)C)c(=O)[nH]1 [Ex 90, 6-(2,1,3-Benzoxadiazol-5-yl)-N-[(4,6-dimethyl-2-oxo-1,2-dihydro-3-pyridinyl)methyl]-3-methyl-1-(1-methylethyl)-1H-pyrazolo[3,4-b]pyridine-4-carboxamide] | 173
Cc1cc(-c2ccccc2)c(CNC(=O)c2cc(C3CC3)nc3c2cnn3C(C)C)c(=O)[nH]1 [Ex 17, 6-Cyclopropyl-1-(1-methylethyl)-N-[(6-methyl-2-oxo-4-phenyl-1,2-dihydro-3-pyridinyl)methyl]-1H-pyrazolo[3,4-b]pyridine-4-carboxamide] | 2590
CC(=O)Nc1ccc(-c2cc(C(=O)NCc3c(C)cc(C)[nH]c3=O)c3cnn(C(C)C)c3n2)cn1 [Ex 69, 6-[6-(Acetylamino)-3-pyridinyl]-N-[(4,6-dimethyl-2-oxo-1,2-dihydro-3-pyridinyl)methyl]-1-(1-methylethyl)-1H-pyrazolo[3,4-b]pyridine-4-carboxamide] | 25
Cc1cc(C)c(CNC(=O)c2cc(-c3ccc4c(c3)NC(=O)C4)nc3c2cnn3C(C)C)c(=O)[nH]1 [Ex 78, N-[(4,6-Dimethyl-2-oxo-1,2-dihydro-3-pyridinyl)methyl]-1-(1-methylethyl)-6-(2-oxo-2,3-dihydro-1H-indol-6-yl)-1H-pyrazolo[3,4-b]pyridine-4-carboxamide] | 43
Cc1cc(C)c(CNC(=O)c2cc(-c3ccccc3C)nc3c2cnn3C(C)C)c(=O)[nH]1 [Ex 70, N-[(4,6-Dimethyl-2-oxo-1,2-dihydro-3-pyridinyl)methyl]-1-(1-methylethyl)-6-(2-methylphenyl)-1H-pyrazolo[3,4-b]pyridine-4-carboxamide] | 1890
Cc1cc(C)c(CNC(=O)c2cc(-c3ccco3)nc3c2cnn3C(C)C)c(=O)[nH]1 [Ex 62, N-[(4,6-Dimethyl-2-oxo-1,2-dihydro-3-pyridinyl)methyl]-6-(2-furanyl)-1-(1-methylethyl)-1H-pyrazolo[3,4-b]pyridine-4-carboxamide] | 581
COc1cncc(-c2cc(C(=O)NCc3c(C)cc(C)[nH]c3=O)c3cnn(C(C)C)c3n2)c1 [Ex 58, N-[(4,6-Dimethyl-2-oxo-1,2-dihydro-3-pyridinyl)methyl]-1-(1-methylethyl)-6-[5-(methyloxy)-3-pyridinyl]-1H-pyrazolo[3,4-b]pyridine-4-carboxamide] | 78
Cc1cc(C)c(CNC(=O)c2cc(-c3ccc(S(C)(=O)=O)cc3)nc3c2cnn3C(C)C)c(=O)[nH]1 [Ex 119, N-[(4,6-Dimethyl-2-oxo-1,2-dihydro-3-pyridinyl)methyl]-1-(1-methylethyl)-6-[4-(methylsulfonyl)phenyl]-1H-pyrazolo[3,4-b]pyridine-4-carboxamide] | 333
Cc1cc(C)c(CNC(=O)c2cc(N(C)C)nc3c2cnn3C(C)C)c(=O)[nH]1 [Ex 24, 6-(Dimethylamino)-N-[(4,6-dimethyl-2-oxo-1,2-dihydro-3-pyridinyl)methyl]-1-(1-methylethyl)-1H-pyrazolo[3,4-b]pyridine-4-carboxamide] | 873
Cc1cc(C)c(CNC(=O)c2cc(C3CC3)nc3c2c(C)nn3C2CCC2)c(=O)[nH]1 [Ex 105, 1-Cyclobutyl-6-cyclopropyl-N-[(4,6-dimethyl-2-oxo-1,2-dihydro-3-pyridinyl)methyl]-3-methyl-1H-pyrazolo[3,4-b]pyridine-4-carboxamide] | 315
Cc1cc(C)c(CNC(=O)c2cc(NC3CCNCC3)nc3c2cnn3C(C)C)c(=O)[nH]1 [Ex 53, N-[(4,6-Dimethyl-2-oxo-1,2-dihydro-3-pyridinyl)methyl]-1-(1-methylethyl)-6-(4-piperidinylamino)-1H-pyrazolo[3,4-b]pyridine-4-carboxamide] | 436
Cc1cc(-c2ccccc2)c(CNC(=O)c2cc(-c3ccncc3)nc3c2cnn3C(C)C)c(=O)[nH]1 [Ex 14, 1-(1-Methylethyl)-N-[(6-methyl-2-oxo-4-phenyl-1,2-dihydro-3-pyridinyl)methyl]-6-(4-pyridinyl)-1H-pyrazolo[3,4-b]pyridine-4-carboxamide] | 735
Cc1cc(C)c(CNC(=O)c2cc(-c3ccccc3[N+](=O)[O-])nc3c2cnn3C(C)C)c(=O)[nH]1 [Ex 124, N-[(4,6-Dimethyl-2-oxo-1,2-dihydro-3-pyridinyl)methyl]-1-(1-methylethyl)-6-(2-nitrophenyl)-1H-pyrazolo[3,4-b]pyridine-4-carboxamide] | 1050
Cc1cc(C)c(CNC(=O)c2cc(NCCNc3ccccn3)nc3c2cnn3C(C)C)c(=O)[nH]1 [Ex 95, N-[(4,6-Dimethyl-2-oxo-1,2-dihydro-3-pyridinyl)methyl]-1-(1-methylethyl)-6-{[2-(2-pyridinylamino)ethyl]amino}-1H-pyrazolo[3,4-b]pyridine-4-carboxamide] | 489
Cc1cc(C)c(CNC(=O)c2cc(-c3cnc(N)nc3)nc3c2cnn3C(C)C)c(=O)[nH]1 [Ex 72, 6-(2-Amino-5-pyrimidinyl)-N-[(4,6-dimethyl-2-oxo-1,2-dihydro-3-pyridinyl)methyl]-1-(1-methylethyl)-1H-pyrazolo[3,4-b]pyridine-4-carboxamide] | 171
Cc1cc(C)c(CNC(=O)c2cc(C#Cc3ccccc3)nc3c2cnn3C(C)C)c(=O)[nH]1 [Ex 31, N-[(4,6-Dimethyl-2-oxo-1,2-dihydro-3-pyridinyl)methyl]-1-(1-methylethyl)-6-(phenylethynyl)-1H-pyrazolo[3,4-b]pyridine-4-carboxamide] | 232
Cc1cc(C)c(CNC(=O)c2cc(N)nc3c2cnn3C(C)C)c(=O)[nH]1 [Ex 6, 6-Amino-N-[(4,6-dimethyl-2-oxo-1,2-dihydro-3-pyridinyl)methyl]-1-(1-methylethyl)-1H-pyrazolo[3,4-b]pyridine-4-carboxamide] | 695
Cc1cc(C)c(CNC(=O)c2cc(Oc3ccncc3)nc3c2cnn3C(C)C)c(=O)[nH]1 [Ex 4, N-[(4,6-Dimethyl-2-oxo-1,2-dihydro-3-pyridinyl)methyl]-1-(1-methylethyl)-6-(4-pyridinyloxy)-1H-pyrazolo[3,4-b]pyridine-4-carboxamide] | 116
